The values that follow come from patent publication US6653344B2, “Pharmaceutical preparations containing a dibenzocyclooctane lignan derivative for treatment of neurodegenerative disease” (Elcom Bio Technology Co., Ltd., priority 2000, dated 2003).

Entries after “also recorded” stand apart in the source; their conditions may differ.

The test deals with glutamate-damaged primary cultured rat cortical cells. The experiment in a line: Neuroprotection against glutamate-induced neurotoxicity, cell viability by MTT assay. The format is cell-based. Set-up: Viability (%) Pre-treatment / Viability (%) Post-treatment: unit of the concentration uncertain. To be noted: for Viability: 1 hr before 100 M glutamate, then 24 hr, control 100, glutamate-treated 0; for Viability (%) Pre-treatment: compound 1 µM for 1 hr before 100 µM glutamate (15 min), then 24 hr in DMEM in the absence of compound; for Viability (%) Post-treatment: glutamate 15 min, washed, 24 hr in the presence of compound 1 µM; for neuroprotective activity, post-treatment (in words): post-treatment with lignan after glutamate; for neuroprotective activity, pre-treatment (in words): pre-treatment with lignan before glutamate; for neuroprotective activity against glutamate-induced neurotoxicity (in words): primary cultures of rat cortical cells, L-glutamate. The protocol: Primary cultures of mixed cortical cells containing both neuron and glia were prepared from fetal rats as described previously (Kim Y C, Kim S R, Markelonis G J and Oh T H (1998) Ginsenosides Rb1 and Rg3 protect cultured rat cortical cells from glutamate-induced neurodegeneration. J. Neurosci. Res. 53: 426-432).
The cortical cells were plated onto collagen-coated dishes at a density of 1×10^6 cells/ml. The cultured cells were grown in DMEM supplemented with 10% heat-inactivated fetal calf serum, 1 mM sodium pyruvate, 100 IU/ml pecicillin and 100 μg/ml streptomycin at 37° C. in a humidified atmosphere of 95% air/5% CO2. cultures were allowed to mature for 2 weeks before being used for experiments.
The lignan compounds to be investigated for having neuroprotective activity or not were dissolved in DMSO(within final culture concentration, 0.1%) and diluted with distilled water and by passing the solution through Milliporemembrane (0.22 μm, Millex-GV, USA) to make sterile state. The solution was cultured, by differentiating the concentration and dosed to neuron cells.
Cortical cells directly isolated from […] fetal were cultured for 14 days. The samples to be tested were treated at different concentrations to cultured cells. After one hour, neurotoxicity was induced by treating 100 μM of glutamate. After 24 hours, the survival cell rate were measured by MTT assay to determine neuroprotective activity of the samples.
To culture broth of the cortical cells during being cultured, MTT(5 mg/ml) was added by 10% of the culture broth. The broth was cultured for more 3 hours. The formed formazan was dissolved by DMSO and was assayed absorption at 540 nm ((Mosmann T (1983) Rapid colorimetric assay for cellular growth and survival: Application to proliferation and cytotoxicity assays. J. Immuno. Methods 65: 55-61)
Deoxychizandrin, gomisin N, schizandrin and wuweizisu C, the important dibenzocyclooctane lignans of Schizandra fruit were evaluated by assessing the viability of cultured cortical neurons after treatment with the neurotoxicant, glutamate. […] After cortical cells were cultured for 14 days, test compounds were dosed at different concentrations and after 1 hour neurotoxicity was induced by 100 μM glutamate. After culturing for 24 hours, the neuroprotective activity was measured. The neuroprotective activity of the compounds were measured by MTT assay for assaying the activity of succinate dehydrogenase. […] And the content of formazan is decreased, too. By using this phenomena, cell survival rate can be measured.
We investigated the protective mechanisms of deoxyschizandrin, gomisin N and wuweizisu C in an attempt to determine at which stage these lignans protected neurons from glutamate-induced toxicity. Cultures were pretreated with the lignans for […] exposure to glutamate(pre-treatment). In addition, some cultures were exposed to glutamate in DMEM for 24 hours in the […] of lignans (post-treatment).
Rat Cortical cultures were treated with compounds for 1 hr before exposure to 100 M glutamate and then maintained for 24 hr. Cell viability was measured by the MTT assay. Optical density (OD) of the control and glutamate-treated were 1.18±0.09 and 0.75±0.07, respectively. Viability was calculated as 100×(OD of glutamate+compound-treated−OD of glutamate-treated)/(OD of control−OD of glutamate-treated). Values given represent the mean SD (n=3).
Rat cortical cultures were treated with compounds at the concentration of 1 M for 1 hr before exposure to 100 M glutamate (15 min) and then maintained in DMEM for 24 hr in the absence of compound (Pre-treatment). Some cortical cultures were exposed to glutamate for 15 min, washed and maintained in DMEN for 24 hr in the presence of compund (Posttreatment). Cell viability was measured by the MTT assay. Optical density (OD) of the control and glutamate-treated were 1.18±0.09 and 0.75±0.07, respectively. Viability was calculated as the same as Table 1. Values given represent the mean SD (n=3). […]
For orientation: Formazan colour is commonly taken as a measure of viable cells.

For the molecule `COc1cc2c(c(OC)c1OC)-c1c(cc(OC)c(OC)c1OC)C[C@H](C)[C@H](C)C2` [Deoxyschizandrin, deoxyschizandrin], the “Viability (%) Pre-treatment” value worked out at 20.1 ± 3.1%; the “Viability (%) Post-treatment” value was 45.9 ± 5.5 %; the “neuroprotective activity, post-treatment (in words)” value is on record as “significant neuroprotective activity”; the “neuroprotective activity, pre-treatment (in words)” value is recorded as “not pre-treated”. Besides, the “neuroprotective activity against glutamate-induced neurotoxicity (in words)” value is given as “exhibited neuroprotective activities; also recorded: significantly have protective activity”. Besides, the Viability (compound 0.1 μM) was determined as 11.6 ± 5.1%. In addition, the Viability (compound 1.0 μM, 1 µM) is given as 46.2 ± 6.3 %. In addition, for the setting “compound 1.0 μM, listed as deoxyschzandrin, 1 µM”, the Viability was 46.2%. The Viability (compound 5.0 μM) is given as 45.6 ± 3.1 %.
`COc1cc2c(c(OC)c1OC)-c1c(cc3c(c1OC)OCO3)C[C@H](C)[C@H](C)C2` [Gomisin N, gomisin N]: the “Viability (%) Pre-treatment” value is listed as 45.5 ± 9.8 %; the “Viability (%) Post-treatment” value came to 39.6 ± 6.2 %; the “neuroprotective activity, post-treatment (in words)” value is “maintained its activity”; the “neuroprotective activity, pre-treatment (in words)” value was “maintained its activity”. In addition, the “neuroprotective activity against glutamate-induced neurotoxicity (in words)” value is “exhibited neuroprotective activities; also recorded: significantly have protective activity”. Moreover, the Viability (compound 0.1 μM) stood at 25.2 ± 4.4%. The Viability (compound 1.0 μM, 1 µM) stood at 51.3 ± 8.3 %. Further, the Viability (compound 1.0 μM, listed as gomisin N, 1 µM) worked out at 51.3%. In addition, the Viability (compound 5.0 μM) is 49.2 ± 9.5 %.
Regarding `COc1c2c(cc3c1-c1c(cc4c(c1OC)OCO4)C[C@H](C)[C@H](C)C3)OCO2` [Wuweizisu C, wuweizisu C], the “Viability (%) Pre-treatment” value was determined as 59.6 ± 5.1 %; the “Viability (%) Post-treatment” value amounted to 19.2 ± 7.8%; the “neuroprotective activity, post-treatment (in words)” value is on record as “not post-treatment”; the “neuroprotective activity, pre-treatment (in words)” value is “neuroprotective”. Further, the “neuroprotective activity against glutamate-induced neurotoxicity (in words)” value is “exhibited neuroprotective activities; also recorded: significantly have protective activity”. Further, where the note is “compound 0.1 μM”, the Viability is given as 30.2 ± 6.3 %. Also, the Viability (compound 1.0 μM, 1 µM) came out at 63.9 ± 5.9 %. Besides, the Viability (compound 1.0 μM, listed as wuwiewisu C, 1 µM) came out at 63.9%. In addition, the Viability (compound 5.0 μM) is 60.9 ± 9.6 %.
